Test results from PubChem BioAssay AID2060886 (Molecular Pharmacology Branch, DTP, NCI, 2025).

System: 653999-131-R-J2-PDC complex spheroids, growth inhibition
Assay: Anticancer human tumor 653999-131-R-J2-PDC patient-derived lung adenocarcinoma cell line growth inhibition [RAS]
Settings: for IC50: curve of first compound; for viability, T/C: stronger effect = lower value
Procedure, shortened: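 Agents were tested in combination matrices in half-log decrements from a top concentration at or near clinical Cmax (10 microM if undetermined). Targets were multi-cell spheroids of tumour lines plus HUVEC and MSC stromal cells.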

[1] = second compound 0.000949 µM, first compound 0.0316 µM
[2] = second compound 0.000949 µM, first compound 0.1 µM
[3] = second compound 0.000949 µM, first compound 0.316 µM
[4] = second compound 0.000949 µM, first compound 1 µM
[5] = second compound 0.000949 µM, first compound 3.16 µM
[6] = second compound 0.000949 µM, first compound 10 µM
[7] = second compound 0.003 µM, first compound 0.0316 µM
[8] = second compound 0.003 µM, first compound 0.1 µM
[9] = second compound 0.003 µM, first compound 0.316 µM
[10] = second compound 0.003 µM, first compound 1 µM
[11] = second compound 0.003 µM, first compound 3.16 µM
[12] = second compound 0.003 µM, first compound 10 µM
[13] = second compound 0.00949 µM, first compound 0.0316 µM
[14] = second compound 0.00949 µM, first compound 0.1 µM
[15] = second compound 0.00949 µM, first compound 0.316 µM
[16] = second compound 0.00949 µM, first compound 1 µM
[17] = second compound 0.00949 µM, first compound 3.16 µM
[18] = second compound 0.00949 µM, first compound 10 µM
[19] = second compound 0.03 µM, first compound 0.0316 µM
[20] = second compound 0.03 µM, first compound 0.1 µM
[21] = second compound 0.03 µM, first compound 0.316 µM
[22] = second compound 0.03 µM, first compound 1 µM
[23] = second compound 0.03 µM, first compound 3.16 µM
[24] = second compound 0.03 µM, first compound 10 µM
[25] = second compound 0.0949 µM, first compound 0.0316 µM
[26] = second compound 0.0949 µM, first compound 0.1 µM
[27] = second compound 0.0949 µM, first compound 0.316 µM
[28] = second compound 0.0949 µM, first compound 1 µM
[29] = second compound 0.0949 µM, first compound 3.16 µM
[30] = second compound 0.0949 µM, first compound 10 µM
[31] = second compound 0.3 µM, first compound 0.0316 µM
[32] = second compound 0.3 µM, first compound 0.1 µM
[33] = second compound 0.3 µM, first compound 0.316 µM
[34] = second compound 0.3 µM, first compound 1 µM
[35] = second compound 0.3 µM, first compound 3.16 µM
[36] = second compound 0.3 µM, first compound 10 µM
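Note: spheroids exposed to the agents for seven days before the readout.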

CC(=O)OC12COC1CC(O)C1(C)C(=O)C(O)C3=C(C)C(OC(=O)C(O)C(NC(=O)OC(C)(C)C)c4ccccc4)CC(O)(C(OC(=O)c4ccccc4)C21)C3(C)C (stereo unspecified) + CCn1c(-c2cccnc2C(C)OC)c2c3cc(ccc31)N1CCOC(CC(NC(=O)C(C(C)C)N(C)C(=O)C3(F)CCN(C(=O)C#CC(C)(C)N(C)C)CC3)C(=O)N3CCCC(N3)C(=O)OCC(C)(C)C2)C1
IC50 (second compound 0.000949 µM): > 10000 nM | IC50 (second compound 0.003 µM): > 10000 nM | IC50 (second compound 0.00949 µM): > 10000 nM | IC50 (second compound 0.03 µM): > 10000 nM | IC50 (second compound 0.0949 µM): > 10000 nM | IC50 (second compound 0.3 µM): < 31.6 nM | viability, T/C [1]: 52.5% | viability, T/C [2]: 52.7% | viability, T/C [3]: 57.8% | viability, T/C [4]: 62.2% | viability, T/C [5]: 62.3% | viability, T/C [6]: 66.6% | viability, T/C [7]: 59.5% | viability, T/C [8]: 53.2% | viability, T/C [9]: 53.8% | viability, T/C [10]: 59.7% | viability, T/C [11]: 70.7% | viability, T/C [12]: 76.9% | viability, T/C [13]: 60.5% | viability, T/C [14]: 59.7% | viability, T/C [15]: 53.1% | viability, T/C [16]: 58.7% | viability, T/C [17]: 66.3% | viability, T/C [18]: 67.2% | viability, T/C [19]: 57.6% | viability, T/C [20]: 59.9% | viability, T/C [21]: 56.1% | viability, T/C [22]: 54.5% | viability, T/C [23]: 68% | viability, T/C [24]: 64.2% | viability, T/C [25]: 53.6% | viability, T/C [26]: 55% | viability, T/C [27]: 52.3% | viability, T/C [28]: 58.5% | viability, T/C [29]: 61% | viability, T/C [30]: 65.1% | viability, T/C [31]: 45.6% | viability, T/C [32]: 49.8% | viability, T/C [33]: 41% | viability, T/C [34]: 52.1% | viability, T/C [35]: 53.7% | viability, T/C [36]: 60.3%

CCN1CCN(Cc2ccc(Nc3ncc(F)c(-c4cc(F)c5nc(C)n(C(C)C)c5c4)n3)nc2)CC1 + CCn1c(-c2cccnc2C(C)OC)c2c3cc(ccc31)N1CCOC(CC(NC(=O)C(C(C)C)N(C)C(=O)C3(F)CCN(C(=O)C#CC(C)(C)N(C)C)CC3)C(=O)N3CCCC(N3)C(=O)OCC(C)(C)C2)C1
IC50 (second compound 0.000949 µM): > 1000 nM | IC50 (second compound 0.003 µM): > 1000 nM | IC50 (second compound 0.00949 µM): > 1000 nM | IC50 (second compound 0.03 µM): > 1000 nM | IC50 (second compound 0.0949 µM): > 1000 nM | IC50 (second compound 0.3 µM): > 1000 nM | viability, T/C (second compound 0.000949 µM, first compound 0.00316 µM): 101% | viability, T/C (second compound 0.000949 µM, first compound 0.01 µM): 87.8% | viability, T/C [1]: 75.3% | viability, T/C [2]: 67.6% | viability, T/C [3]: 73.2% | viability, T/C [4]: 78.4% | viability, T/C (second compound 0.003 µM, first compound 0.00316 µM): 98.5% | viability, T/C (second compound 0.003 µM, first compound 0.01 µM): 76.9% | viability, T/C [7]: 75.5% | viability, T/C [8]: 75% | viability, T/C [9]: 71.8% | viability, T/C [10]: 92.9% | viability, T/C (second compound 0.00949 µM, first compound 0.00316 µM): 105% | viability, T/C (second compound 0.00949 µM, first compound 0.01 µM): 99.5% | viability, T/C [13]: 64.8% | viability, T/C [14]: 77.6% | viability, T/C [15]: 80% | viability, T/C [16]: 82.2% | viability, T/C (second compound 0.03 µM, first compound 0.00316 µM): 95.1% | viability, T/C (second compound 0.03 µM, first compound 0.01 µM): 75.7% | viability, T/C [19]: 79.2% | viability, T/C [20]: 64.2% | viability, T/C [21]: 89.9% | viability, T/C [22]: 79.1% | viability, T/C (second compound 0.0949 µM, first compound 0.00316 µM): 90.9% | viability, T/C (second compound 0.0949 µM, first compound 0.01 µM): 85.6% | viability, T/C [25]: 79.5% | viability, T/C [26]: 69.3% | viability, T/C [27]: 83.7% | viability, T/C [28]: 81.3% | viability, T/C (second compound 0.3 µM, first compound 0.00316 µM): 95.4% | viability, T/C (second compound 0.3 µM, first compound 0.01 µM): 81.6% | viability, T/C [31]: 73.7% | viability, T/C [32]: 60.8% | viability, T/C [33]: 84.6% | viability, T/C [34]: 77.6%

CC(C)NCC(C(=O)N1CCN(c2ncnc3c2C(C)CC3O)CC1)c1ccc(Cl)cc1 (stereo unspecified) + CCn1c(-c2cccnc2C(C)OC)c2c3cc(ccc31)N1CCOC(CC(NC(=O)C(C(C)C)N(C)C(=O)C3(F)CCN(C(=O)C#CC(C)(C)N(C)C)CC3)C(=O)N3CCCC(N3)C(=O)OCC(C)(C)C2)C1
IC50 (second compound 0.000949 µM): 953 nM | IC50 (second compound 0.003 µM): 1240 nM | IC50 (second compound 0.00949 µM): 1530 nM | IC50 (second compound 0.03 µM): 1530 nM | IC50 (second compound 0.0949 µM): 1160 nM | IC50 (second compound 0.3 µM): 996 nM | viability, T/C [1]: 91% | viability, T/C [2]: 110% | viability, T/C [3]: 72.1% | viability, T/C [4]: 53.1% | viability, T/C [5]: 41.6% | viability, T/C [6]: 34.6% | viability, T/C [7]: 86.8% | viability, T/C [8]: 99.8% | viability, T/C [9]: 70.2% | viability, T/C [10]: 54.3% | viability, T/C [11]: 40.6% | viability, T/C [12]: 32.9% | viability, T/C [13]: 118% | viability, T/C [14]: 94.4% | viability, T/C [15]: 83.6% | viability, T/C [16]: 48.2% | viability, T/C [17]: 44.7% | viability, T/C [18]: 30.6% | viability, T/C [19]: 101% | viability, T/C [20]: 85.1% | viability, T/C [21]: 76.4% | viability, T/C [22]: 53.5% | viability, T/C [23]: 40.8% | viability, T/C [24]: 31.2% | viability, T/C [25]: 109% | viability, T/C [26]: 81.7% | viability, T/C [27]: 73.3% | viability, T/C [28]: 47.3% | viability, T/C [29]: 39.9% | viability, T/C [30]: 36.5% | viability, T/C [31]: 92% | viability, T/C [32]: 85.7% | viability, T/C [33]: 64.8% | viability, T/C [34]: 49.9% | viability, T/C [35]: 42.5% | viability, T/C [36]: 34.2%
